The values that follow come from patent US11549123B2, “Plant EPSP synthases and methods of use” (PIONEER HI-BRED INTERNATIONAL, INC., priority 2015, dated 2023).

Changes are numbered by the printed parent chain. pKi: −log10 of the molar value.

Common to all, as to assay type: biochemical
In experiment [1] the target is T1, Zea mays EPSPS variant L-A at positions 103-107 (Zea mays, UniProt O24566, P106A/T102L).
T1 sequence (O24566 with tags, fused parts or gaps T102L/P106A): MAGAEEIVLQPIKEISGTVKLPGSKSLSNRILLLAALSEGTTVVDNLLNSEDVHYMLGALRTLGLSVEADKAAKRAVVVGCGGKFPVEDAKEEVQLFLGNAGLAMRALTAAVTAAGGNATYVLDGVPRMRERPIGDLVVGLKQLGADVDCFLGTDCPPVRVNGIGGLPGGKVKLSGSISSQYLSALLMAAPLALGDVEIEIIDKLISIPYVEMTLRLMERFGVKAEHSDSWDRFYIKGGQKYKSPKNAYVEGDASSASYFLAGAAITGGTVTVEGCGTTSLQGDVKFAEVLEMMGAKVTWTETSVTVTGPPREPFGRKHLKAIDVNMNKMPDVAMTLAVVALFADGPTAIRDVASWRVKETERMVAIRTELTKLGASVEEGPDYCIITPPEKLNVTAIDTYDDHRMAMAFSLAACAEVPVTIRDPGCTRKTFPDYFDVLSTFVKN
The experiment in a line: EPSPS substrate saturation kinetics, maize variant 103L 107A. How it is done: (§1) EPSPS activity was determined by quantifying the phosphate generated from the EPSPS reaction. Release of inorganic phosphate was coupled to reaction with 2-amino-6-mercapto-7-methylpurine ribonucleoside, catalyzed by purine-nucleoside phosphorylase (M R Webb, Proc. Natl. Acad. Sci. 89:4884-4887, 1992). The absorbance change that occurs was monitored at 360 nm, where the extinction is 11,200 M^−1 cm^−1, with a Spectramax plate reader (Molecular Devices). To determine kinetic parameters, the varied substrate was present at seven concentrations (the eighth being the blank, containing no substrate) ranging from 4 to 400 uM and the unvaried substrate present at saturation. Six microliters of 50-fold concentrated stock solutions of the varied substrate were placed in the wells of the 96-well assay plate and reactions were started with the addition of a mixture containing 25 mM Hepes, pH 7, 100 mM KCl, 0.3 mM 2-amino-6-mercapto-7-methylpurine ribonucleosde, 1 uM (1 unit/ml) purine-nucleoside phosphorylase (Sigma N8264) and 200 uM of the non-varied substrate. Reactions were monitored with a Spectramax plate reader. The Michaelis-Menten kinetics protocol of the Spectramax software was customized for the substrate concentrations used. The software returns values of KM and Vmax using the Lineweaver-Burke transformation of the Michaelis-Menten equation. To determine kcat, Vmax (uM/min) was divided by the enzyme concentration (uM). […] KI was then calculated from the following form of the Michaelis-Menten equation for competitive inhibition: KI=KM[I]/(KM app−KM) KM approximates the dissociation constant of the enzyme-substrate complex while kcat is the rate of conversion of substrate to product when the substrate concentration is saturating. kcat/KM is a widely accepted parameter for catalytic efficiency when substrate concentration is low (˜KM). […] The parameter kcat/KM×KI is used to quantify both catalytic efficiency and insensitivity and thus the overall fitness of the enzyme. […]

For experiment [2], the target named is T2, Zea mays EPSPS variant L-T at positions 103-107 (Zea mays, UniProt O24566, P106T/T102L).
T2 sequence (O24566 with tags, fused parts or gaps T102L/P106T): T1 sequence (O24566 with tags, fused parts or gaps T102L/P106A) with A107T
Put plainly: EPSPS substrate saturation kinetics, maize variant 103L 107T. How it is done: as §1

In experiment [3] the target is Zea mays EPSPS variant 4N (Zea mays, UniProt O24566, A3N). The experiment in a line: EPSPS reaction rate with or without 10 uM glyphosate, 4N. Note: 50 µM PEP and S3P. Conditions: pH 7; read-out: Reaction rate with 10 μM glyph, % no glyph.
Chain of Zea mays EPSPS variant 4N (O24566 entry or part of it A3N): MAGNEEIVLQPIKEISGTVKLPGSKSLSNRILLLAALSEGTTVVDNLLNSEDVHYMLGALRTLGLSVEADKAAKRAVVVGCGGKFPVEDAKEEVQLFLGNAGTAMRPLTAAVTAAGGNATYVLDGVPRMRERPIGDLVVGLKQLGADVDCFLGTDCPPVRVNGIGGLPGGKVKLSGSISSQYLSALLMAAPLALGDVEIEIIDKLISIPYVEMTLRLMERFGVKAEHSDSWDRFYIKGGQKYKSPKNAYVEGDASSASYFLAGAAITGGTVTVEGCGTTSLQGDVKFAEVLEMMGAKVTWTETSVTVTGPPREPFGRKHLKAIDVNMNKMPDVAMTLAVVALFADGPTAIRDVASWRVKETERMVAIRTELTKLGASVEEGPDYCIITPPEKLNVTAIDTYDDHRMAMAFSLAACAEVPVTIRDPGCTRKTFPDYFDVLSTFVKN
For experiment [4], the target named is T3, Zea mays EPSPS variant Zm-H6 (868-H6) with V87T (H6-V87T) (Zea mays, UniProt O24566, A1R/A3W/A415G/A71Q/D401G/E301S/E390G/G101A/I207L/K83R/L97C/T278A/T360S/T440Q/V437R/V86T).
T3 construct: 868-H6 plus V87T; E. coli BL21(DE3), Ni-NTA purified
T3 sequence (O24566 with tags, fused parts or gaps A1R/A3W/A71Q/K83R/V86T/L97C/G101A/I207L/T278A/E301S/T360S/E390G/D401G/A415G/V437R/T440Q): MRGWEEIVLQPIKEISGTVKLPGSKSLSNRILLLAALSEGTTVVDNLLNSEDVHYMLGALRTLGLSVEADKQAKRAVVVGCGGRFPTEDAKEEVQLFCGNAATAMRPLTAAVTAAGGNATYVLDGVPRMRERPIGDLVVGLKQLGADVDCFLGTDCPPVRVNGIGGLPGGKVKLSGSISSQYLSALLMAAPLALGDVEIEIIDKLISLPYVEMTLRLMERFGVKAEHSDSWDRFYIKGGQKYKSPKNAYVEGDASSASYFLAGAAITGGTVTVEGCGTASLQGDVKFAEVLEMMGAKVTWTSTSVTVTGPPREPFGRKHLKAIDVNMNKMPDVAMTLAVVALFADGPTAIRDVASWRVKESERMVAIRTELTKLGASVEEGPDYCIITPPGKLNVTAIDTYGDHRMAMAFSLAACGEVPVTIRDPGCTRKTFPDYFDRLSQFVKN
The experiment in a line: Substrate saturation kinetic analysis with glyphosate, H6-V87T.

Where [5] appears, read: PEP as substrate, glyphosate as inhibitor.

For the molecule `C=C(OP(=O)(O)O)C(=O)O` [PEP, phosphoenolpyruvate], the kcat in experiment [1] (PEP varied) was 125; in experiment [2] (PEP varied), 184.

Usually pKi stands for the Ki on a negative log10 scale, so that one unit is a factor of ten. A high value points to a low Ki. Regarding `O=C(O)CNCP(=O)(O)O` [glyphosate, N-phosphonomethylglycine], in experiment [3], the activity at 10 µM was 7.56%. The values for the pKi in experiment [4], in experiment [1] and in experiment [2] were 3.46, 3.33 and 3.54, respectively. Besides, the “(kcat/KM)*KI” value stood at 3280 in experiment [4] (substrate saturation, H6-V87T); 1143 in experiment [1] (setting [5]); 1163 in experiment [2] (setting [5]).
